Laboratory results published in patent US11472799B2, “Serine threonine kinase (AKT) degradation / disruption compounds and methods of use” (Icahn School of Medicine at Mount Sinai, priority 2018, dated 2022).
“Also recorded” adds a separate entry of the source. Blank lines part the entries; values can stand above or below the molecule they belong to.

How the values were obtained:
[1] = system: AKT; test: Western blot of AKT protein levels and downstream signaling in BT474 cells; format: cell-based, human; details: for suppression of AKT protein level and AKT activity: Western blot (FIGS. 1, 3, 4)
Summary of the method: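 Lysates were immunoblotted with chemiluminescent detection for p-AKT Ser473, total AKT, p-S6 Ser240/244 and p-PRAS40 Thr246, using actin as loading control.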

[2] = system: AKT; test: Time course Western blot of AKT degradation in BT474 cells; format: cell-based, human; details: for time point for the most significant AKT degradation: BT474 cells (FIGS. 2 and 5); for time-dependent reduction of AKT, p-AKT, P-PRAS40 (T246), and P-S6 (S240/244) protein levels: BT474 cells, 1 μM
Procedure: (§1) Cells were lysed in 2× sample buffer (125 mM Tris-HCl at pH 6.8, 10% βME, 2% SDS, 20% glycerol, 0.05% Bromophenol Blue, 8 M urea). Protein lysates were loaded into 4-12% Bis-Tris gels and resolved by electrophoresis. Samples were then blotted on PVDF membrane (Millipore IPVH00010) using the wet transfer technique (Invitrogen). Membranes were blocked in 5% milk-TBST for 1 hour, washed in TBST for 10 min, and incubated in primary antibody in 5% milk-TBST or 5% BSA-TBST at 4° C. for 16 h. Membranes were rinsed (3×6 min) in TBST and incubated in horseradish peroxidase-conjugated secondary antibodies in 5% milk-TBST for 1 hour and rinsed again in TBST (3×6 min). Membranes were visualized using the chemiluminescence system (Thermo 34080, 37075) on autoradiography film (Denville E3018). Primary Antibodies: R-actin (Sigma A5316), p-AKT (Ser473 CST-9721), total AKT (CST-9272), p-S6 (Ser240/244, CST-5364), p-PRAS40 (Thr246, CST-2997). Secondary Antibodies: Mouse (Thermo 31432), Rabbit (Thermo 31460).

[3] = system: colon cancer xenograft with RAS/RAF activation albeit with PIK3CA mutation; details: alone; xenograft with RAS/RAF activation and PIK3CA mutation; cited from earlier work
[4] = phase I clinical trial (Saura et al., 2017); cited from earlier work
[5] = system: AKT; test: Rescue of XF050-21 induced AKT degradation by pretreatment in BT474 cells; format: cell-based, human
Procedure: BT474 Cells were pre-treated with DMSO, VHL-1 (1 mM), MLN4924 (1 μM), MG-132 (20 μM) or AZD5363 (1 μM) for 2 h, before being treated with the 1 μM XF050-21 compounds for 24 h.
as §1

[6] = system: PC-3 cells; test: Cell proliferation (IncuCyte live cell imaging) in PC-3 cells; format: cell-based, human; details: PC-3 cells (FIG. 7)
Procedure: (§2) 1-3×10^3 PC-3 or MDA-MB-468 cells were seeded in 96-well plates in triplicates and treated at the indicated compound concentrations. Cells were monitored using the IncuCyte® live cell imaging system (Essen Bioscience™, Ann Arbor, Mich.) which was placed in a cell culture incubator operated at 37° C. and 5% CO2. Cell confluence was determined using calculations derived from phase-contrast images. The concentration for 50% of maximal inhibition of cell proliferation (GI50) values were determined by fitting to a standard four-parameter logistic using GraphPad Prism® v5.
(§3) Experiments were carried out in 96-well plates in triplicates. A total of 1-3×10^3 cells per well were grown in the presence of 1 μM of AZD5363 (Selleckchem), 1 μM of selected degrader compounds. Cells were then monitored for 3-4 days using the IncuCyte live cell imaging system (Essen BioScience, Ann Arbor, Mich., USA), which was placed in a cell culture incubator operated at 37° C. and 5% CO2. Cell confluence was determined using calculations derived from phase-contrast images. For measurement of cell death DRAQ7 (Cell Signaling #7406) at 1.5 μM was included in the medium and apoptotic red counts were measured in IncuCyte™ FLR automated incubator microscope.

[7] = system: AKT; test: Western blot of AKT protein levels in U87MG cells; format: cell-based; details: 0.3 μM, 1 μM, 3 μM, or 10 μM for 24 h
Procedure: as §1

[8] = system: AKT; test: Western blot of AKT protein levels in MDA-MB-468 cells; format: cell-based; details: 0.3 μM, 1 μM, 3 μM, or 10 μM for 24 h
Procedure: as §1

[9] = system: AKT; test: Combination of AKT degrader and mTOR inhibitor, Western blot in BT474 cells; format: cell-based, human; details: 24 h, combined with an mTOR inhibitor (Torin1 or Rapamycin)
Procedure: as §1

[10] = system: MDA-MB-468 cells; test: Cell proliferation (IncuCyte live cell imaging) in MDA-MB-468 cells; format: cell-based; details: MDA-MB-468 cells (FIG. 7)
Procedure: as §2, §3

[11] = system: HCC1143 cells; test: Colony formation (Crystal Violet) in HCC1143 cells; format: cell-based; details: 0.1-10 μM for 2 weeks (FIG. 8)
Procedure: (§4) PC-3, MDA-MB-468, HCC1143, and MDA-MB-231 cells were treated with DMSO, AZD5363 or XF050-21 at 0.1 μM, 0.3 μM, 1 μM, 3 μM, or 10 μM for 2 weeks.
(§5) Cells were cultured for 12-17 days in the presence of different compounds. Media with compound was replenished every two days. At the end of the experiment, media was aspirated and viable cells were stained with 0.5% crystal violet dye.

[12] = system: PC-3 cells; test: Colony formation (Crystal Violet) in PC-3 cells; format: cell-based, human; details: 0.1-10 μM for 2 weeks (FIG. 8)
Procedure: as §4, §5

[13] = system: MDA-MB-231 cells; test: Colony formation (Crystal Violet) in MDA-MB-231 cells; format: cell-based; details: 0.1-10 μM for 2 weeks (FIG. 8)
Procedure: as §4, §5

[14] = system: MDA-MB-468 cells; test: Colony formation (Crystal Violet) in MDA-MB-468 cells; format: cell-based; details: 0.1-10 μM for 2 weeks (FIG. 8)
Procedure: as §4, §5

[15] = system: AKT; test: Western blot of AKT protein levels in PC-3 cells; format: cell-based, human; details: 0.3 μM, 1 μM, 3 μM, or 10 μM for 24 h (FIG. 4B)
Procedure: PC-3, U87MG, HCC1143, MDA-MB-231, MDA-MB-468, BT474 and MCF-7 cell lines were purchased from ATCC. Cell lines were regularly tested in the lab for mycoplasma. All cells were cultured at 37° C. and 5% CO2. PC-3, U87MG, MDA-MB-231, MCF-7 and BT474 cells were cultured in 1×DMEM (Corning, 10-013-CV) with 10% fetal bovine serum (Atlanta Biologicals S11150) and 1× Penicillin/Streptomycin. HCC1143 cells were cultured in RPMI (Corning, 10-040-CV) medium with 10% fetal bovine serum (Atlanta Biologicals S11150) and 1× Penicillin/Streptomycin. Cells were split using 0.05% or 0.25% trypsin (Corning 25-051-Cl or 25-053-Cl, respectively) before they reached full confluence and media was changed every 3-4 days. Cells were treated with compounds individually at different concentrations for 24 hrs. Cells were treated with DMSO, VHL, or PML alone as controls.
as §1

[16] = Mouse PK study, plasma exposure; format: in vivo, Swiss Albino mice
Procedure: Standard PK studies were conducted using male Swiss Albino mice. A single 75 mg/kg intraperitoneal (IP) injection of XF050-21 was evaluated. Plasma concentrations of XF050-21 reported at each of the six time points (30 min, 1 h, 2 h, 4 h, 8 h, and 12 h post dosing) are the average values from 3 test animals.

[17] = system: AKT; test: Time course Western blot of AKT degradation in PC-3 cells; format: cell-based, human; details: PC3 cells, 1 μM
Procedure: BT474 cells and PC-3 cells were treated with DMSO or the indicated compounds at a fixed concentration of 1 μM for 1, 2, 4, 8, 12, or 24 h. […] The maximum degradation of AKT and inhibition of downstream signaling were observed after 12 h of treatment in PC-3 cells (FIG. 5B).
as §1

Structure (SMILES): Cc1ncsc1-c1ccc(CNC(=O)[C@@H]2C[C@@H](O)CN2C(=O)[C@@H](NC(=O)CCCCCCCCCCNC(=O)CCNC[C@@H](C(=O)N2CCN(c3ncnc4c3[C@H](C)C[C@H]4O)CC2)c2ccc(Cl)cc2)C(C)(C)C)cc1 [XF038-166A, (2S,4R)-1-((S)-2-(11-(3-(((S)-2-(4-chlorophenyl)-3-(4-((5R,7R)-7-hydroxy-5-methyl-6,7-dihydro-5H-cyclopenta[d]pyrimidin-4-yl)piperazin-1-yl)-3-oxopropyl)amino)propanamido)undecanamido)-3,3-dimethylbutanoyl)-4-hydroxy-N-(4-(4-methylthiazol-5-yl)benzyl)pyrrolidine-2-carboxamide]
suppression of AKT protein level and AKT activity [1]: effective in suppressing both AKT protein level and AKT activity | time point for the most significant AKT degradation [2]: 24 h | time-dependent reduction of AKT, p-AKT, P-PRAS40 (T246), and P-S6 (S240/244) protein levels [2]: time-dependently reduces

Structure (SMILES): CC(C)NC[C@@H](C(=O)N1CCN(c2ncnc3c2[C@H](C)C[C@H]3O)CC1)c1ccc(Cl)cc1 [GDC0068]
efficacy in colon cancer xenograft [3]: not very effective | objective tumor shrinkage [4]: failed to result in significant objective tumor shrinkage

clinical observations during PK study ([16]; male Swiss Albino mice, single 75 mg/kg IP): no abnormal clinical observations noted | bioavailability in mice ([16]; single 75 mg/kg IP injection, plasma): Bioavailable
Structure (SMILES): Cc1ncsc1-c1ccc(CNC(=O)[C@@H]2C[C@@H](O)CN2C(=O)[C@@H](NC(=O)CCCCCCCCCC(=O)N2CCN(CC[C@H](NC(=O)C3(N)CCN(c4ncnc5[nH]ccc45)CC3)c3ccc(Cl)cc3)CC2)C(C)(C)C)cc1 [XF050-21, 4-amino-N-((S)-1-(4-chlorophenyl)-3-(4-(11-(((S)-1-((2S,4R)-4-hydroxy-2-((4-(4-methylthiazol-5-yl)benzyl)carbamoyl)pyrrolidin-1-yl)-3,3-dimethyl-1-oxobutan-2-yl)amino)-11-oxoundecanoyl)piperazin-1-yl)propyl)-1-(7H-pyrrolo[2,3-d]pyrimidin-4-yl)piperidine-4-carboxamide]
mechanism of induced AKT protein degradation [5]: mediated by hijacking the E3 ubiquitin ligase VHL | rescue of AKT degradation by pretreatment ([5]; 2 h pretreatment with VHL-1, MLN4924, MG-132 or AZD5363, then 1 μM XF050-21 for 24 h): can be rescued by VHL-1, MLN4924, MG-132 or AZD5363 pretreatment; also recorded: can be blocked by pretreatment of VHL-1, MLN4924, MG132, and AZD5363; also recorded: can be rescued by pretreatment of the cells with VHL-1, MLN4924, MG132 and AZD5363 | cell proliferation inhibition compared with AZD5363 [6]: more effective than AZD5363; also recorded: better cell proliferation inhibition activity than AZD5363 | AKT protein levels [7]: significantly reduced | AKT protein levels [8]: significantly reduced | suppression of AKT protein level and AKT activity [1]: effective in suppressing both AKT protein level and AKT activity | AKT protein levels and downstream signaling under combination treatment [9]: reduced AKT protein levels and inhibited downstream signaling; also recorded: significantly reduced the AKT protein levels and AKT downstream signaling | cell proliferation inhibition compared with AZD5363 [10]: more effective than AZD5363; also recorded: better cell proliferation inhibition activity than AZD5363 | colony formation inhibition compared with AZD5363 [11]: more effective in inhibiting cancer cell proliferation than AZD5363; also recorded: better colony formation inhibition than AZD5363 | colony formation inhibition compared with AZD5363 [12]: more effective in inhibiting cancer cell proliferation than AZD5363; also recorded: better colony formation inhibition than AZD5363 | colony formation inhibition compared with AZD5363 [13]: more effective in inhibiting cancer cell proliferation than AZD5363; also recorded: better colony formation inhibition than AZD5363 | colony formation inhibition compared with AZD5363 [14]: more effective in inhibiting cancer cell proliferation than AZD5363; also recorded: better colony formation inhibition than AZD5363 | AKT protein levels [15]: significantly reduced | time point for the most significant AKT degradation [2]: 24 h | time-dependent reduction of AKT, p-AKT, P-PRAS40 (T246), and P-S6 (S240/244) protein levels [2]: time-dependently reduce | time-dependent reduction of AKT, p-AKT, P-PRAS40 (T246), and P-S6 (S240/244) protein levels [17]: time-dependently reduces

Structure (SMILES): NC1(C(=O)N[C@@H](CCO)c2ccc(Cl)cc2)CCN(c2ncnc3[nH]ccc23)CC1 [AZD5363, 4-amino-N-[(1S)-1-(4-chlorophenyl)-3-hydroxypropyl]-1-(7H-pyrrolo[2,3-d]pyrimidin-4-yl)piperidine-4-carboxamide, reference compound]
AKT protein levels [7]: no effect | pAKT levels [7]: increased | AKT protein levels [8]: no effect | pAKT levels [8]: increased | AKT protein levels ([1]; 1 μM, 5 μM, or 10 μM for 24 h): no effect | pAKT levels ([1]; 1 μM, 5 μM, or 10 μM for 24 h): increased | AKT protein levels ([1]; 0.01-1 μM for 24 h (FIG. 4A)): no effect | pAKT levels ([1]; 0.01-1 μM for 24 h (FIG. 4A)): increased | AKT protein levels [15]: no effect | pAKT levels [15]: increased
